One assay concerns the target T1, IL-23R (Homo sapiens, UniProt Q5VWK5).
T1 construct: HEK293 cells containing IL-23R, IL-12Rβ1 and a firefly luciferase reporter gene driven by a STAT-inducible promoter (Promega); host or cells: HEK293
T1 sequence (Q5VWK5 24-629): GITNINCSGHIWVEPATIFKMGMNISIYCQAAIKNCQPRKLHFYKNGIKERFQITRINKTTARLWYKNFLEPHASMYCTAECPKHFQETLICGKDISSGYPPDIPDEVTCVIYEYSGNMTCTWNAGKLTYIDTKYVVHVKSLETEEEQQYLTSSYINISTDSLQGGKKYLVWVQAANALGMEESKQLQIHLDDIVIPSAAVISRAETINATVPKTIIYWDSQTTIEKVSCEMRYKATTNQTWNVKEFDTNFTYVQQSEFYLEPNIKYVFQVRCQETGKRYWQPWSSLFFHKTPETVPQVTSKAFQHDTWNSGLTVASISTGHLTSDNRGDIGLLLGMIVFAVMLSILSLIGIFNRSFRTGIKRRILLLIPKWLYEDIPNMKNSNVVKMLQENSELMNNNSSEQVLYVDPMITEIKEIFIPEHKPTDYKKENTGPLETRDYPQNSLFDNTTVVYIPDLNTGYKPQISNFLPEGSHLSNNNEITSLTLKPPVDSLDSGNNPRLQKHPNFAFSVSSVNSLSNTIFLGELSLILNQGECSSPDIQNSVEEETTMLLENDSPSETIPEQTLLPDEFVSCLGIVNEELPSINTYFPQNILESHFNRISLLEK
In words: IL23R Reporter Assay. The following applies: HEK293 cells containing IL-23R, IL-12Rβ1 and STAT-inducible firefly luciferase reporter; 10 ng/mL IL-23 (EC90); 5 h. It is filed as cell-based. The essentials: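 IC50 values were fitted with a 4-parameter Hill equation to luciferase signal, scaled between IL-23-only wells (0% inhibition) and 30 μM reference inhibitor (100%). The readout was a STAT-inducible reporter in IL-23R/IL-12Rβ1 HEK293 cells, stimulated with added 10 ng/mL IL-23 (EC90) for 5 h at 37° C and developed with BioGlo.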
(In a reporter assay the amount or activity of a reporter protein is the signal.)

Assay [1] deals with IL-23-stimulated phosphorylated STAT3 in peripheral blood mononuclear cells (PBMCs). In words: PBMC pSTAT3 Assay. It counts as cell-based. The note with it: PBMCs from healthy donors; 30 min preincubation with peptide; IL-23 5 ng/mL for 30 min; phospho-STAT3 by MSD. In a few lines: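 Phospho-STAT3 quantified by Meso Scale assay in lysates of PBMCs exposed to IL-23 (5 ng/mL, 30 min, 37 °C) after 30 min peptide pretreatment. Cells were cryopreserved donor PBMCs activated 4 days with anti-CD3 plus IL-1β (100 ng/mL) and starved ~4 h; IC50 reported.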

A word on the IC50: it is the midpoint of a concentration-inhibition curve. Low values mean greater potency, high ones weaker potency.

*1 amine or outer side, *2 acyl side, *3 side chain or, on linkers, in order; H or OH if unused. Where a SMILES comes first, the peptide text is derived from it. Bridges are numbered along the chain shown (N, C = ends). Side-chain parts run from the residue outwards. [ ]: non-standard residue; d: D form. The star is where a group is joined. ξ: configuration not given here. X29 = C[C@H](CCCCNC(=O)COCCOCCNC(=O)COCCOCCNC(=O)CC[C@H](NC(=O)CCCCCCCCCCCCCCCCC(=O)O)C(=O)O)C(=O)C[C@H](C(=O)[*:1])C(C)(C)S[*:2]; X34 = O=C(O)CCCCCCCCCCCCCCCCC(=O)C[C@@H](CCC(=O)NCCOCCOCC(=O)NCCOCCOCCN*)C(=O)O; X15 = C[N+](C)(C)CCOCCOCCC(=O)C[C@H](CCCCN[*:1])C(=O)[*:2]; Me3N+CH2CH2(OCH2CH2)4CO = C[N+](C)(C)CCOCCOCCOCCOCCC(=O)*; Me3N+(CH2)2O(CH2)2O(CH2)2CO = C[N+](C)(C)CCOCCOCCC(=O)*; X28 = CC(=O)[C@H](CCC(=O)*)NC(=O)CCCCCCCCCCCCCCCCC(=O)O; PEG12 = NCCOCCOCCOCCOCCOCCOCCOCCOCCOCCOCCOCCOCCC(=O)O; CH2CH2OCH2CH2OCH2CH2NMe3+ = C[N+](C)(C)CCOCCOCC*; Trp(7-Me) = Cc1cccc2c(C[C@H](N)C(=O)O)c[nH]c12; C18 diacid = O=C(O)CCCCCCCCCCCCCCCCC(=O)*; X6 = CN(CC[C@H](N[*:1])C(=O)[*:2])[*:3]; γGlu = O=C(O)[C@H](CCC(=O)[*:2])N[*:1]; 2Nal = N[C@@H](Cc1ccc2ccccc2c1)C(=O)O; PEG6 = NCCOCCOCCOCCOCCOCCOCCC(=O)O; ξAEF = NCCOc1ccc(CC(N)C(=O)O)cc1; 3Pal = N[C@@H](Cc1cccnc1)C(=O)O; Lys(Me) = CNCCCC[C@H](N)C(=O)O; NMeK = CN[C@@H](CCCCN)C(=O)O; Pen = CC(C)(S)[C@H](N)C(=O)O; Thp = NC1(C(=O)O)CCOCC1; X1 = C[N+](C)(C)CCCCC*; Sar = CNCC(=O)O Bounds are passed on as bounds.

In the case of `CC(=O)[C@H](CCC(=O)NCCOCCOCCOCCOCCOCCOCCC(=O)NCCCC[C@@H](C(N)=O)N(C)C(=O)[C@H](Cc1cccnc1)NC(=O)[C@H](CC(N)=O)NC(=O)[C@H](CCC(=O)O)NC(=O)C1(NC(=O)[C@H](Cc2ccc3ccccc3c2)NC(=O)C(Cc2ccc(OCCN)cc2)NC(=O)[C@H]2NC(=O)[C@H](CCN(C)C(=O)CCOCCOCCOCCOCC[N+](C)(C)C)NC(=O)[C@H](Cc3c[nH]c4c(C)cccc34)NC(=O)[C@H]([C@@H](C)O)NC(=O)[C@H](CC(=O)N(C)C)NC(=O)[C@@H](NC(=O)CCOCCOCCOCCOCC[N+](C)(C)C)C(C)(C)SSC2(C)C)CCOCC1)NC(=O)CCCCCCCCCCCCCCCCC(=O)O` (some centres unmarked) [compound 90, cPEG5aCO-Pen(3)-N(N(Me)2)-T-7MeW-Dab(NMecPEG5a)-Pen(3)-AEF-2Nal-THP-E-N-3Pya-NMeK(PEG6gEC18OH)-CONH2] ({Me3N+CH2CH2(OCH2CH2)4CO}-[Pen]D(NMe2)T[Trp(7-Me)][X6](Me3N+CH2CH2(OCH2CH2)4CO)[Pen][ξAEF][2Nal][Thp]EN[3Pal][NMeK]([PEG6-X28])-NH2; disulfide 1-6), the IC50 is 50 to 500 nM against IL-23R and below 0.5 nM in assay [1].

On to `CC(=O)N(C)CCCC[C@@H]1NC(=O)[C@H](Cc2c[nH]c3c(C)cccc23)NC(=O)[C@H]([C@@H](C)O)NC(=O)[C@H](CC(=O)N(C)C)NC(=O)[C@@H](CC(=O)[C@H](C)CCCCNC(=O)COCCOCCNC(=O)COCCOCCNC(=O)CC[C@H](NC(=O)CCCCCCCCCCCCCCCCC(=O)O)C(=O)O)C(C)(C)SSC(C)(C)[C@@H](C(=O)N[C@@H](Cc2ccc(OCCOCCOCC[N+](C)(C)C)cc2)C(=O)N[C@@H](Cc2ccc3ccccc3c2)C(=O)NC2(C(=O)N[C@@H](CCCCN(C)C(C)=O)C(=O)N[C@@H](CC(N)=O)C(=O)N[C@@H](Cc3cccnc3)C(=O)N(C)CC(=O)N(C)C)CCOCC2)NC1=O` [compound 159, cPEG3aCO-k(PEG2PEG2gEC18OH)-Pen(3)-N(N(Me)2)-T-7MeW-K(NMeAc)-Pen(3)-APEG3F-2Nal-THP-K(NMeAc)-N-3Pya-Sar-CON(Me)2] (D(NMe2)T[Trp(7-Me)][Lys(Me)](Ac)[Pen]Y(CH2CH2OCH2CH2OCH2CH2NMe3+)[2Nal][Thp][Lys(Me)](Ac)N[3Pal][Sar]-NMe2; linker N-5 via X29), for which the IC50 on IL-23R is below 50 nM; in assay [1], below 0.5 nM.

With `CC(=O)N(C)CCCC[C@@H]1NC(=O)[C@H](Cc2c[nH]c3c(C)cccc23)NC(=O)[C@H]([C@@H](C)O)NC(=O)[C@H](CC(=O)N(C)C)NC(=O)[C@@H](NC(=O)[C@@H](CCCCNC(=O)CCOCCOCCOCCOCCOCCOCCOCCOCCOCCOCCOCCOCCNC(=O)CC[C@H](NC(=O)CCCCCCCCCCCCCCCCC(=O)O)C(=O)O)CC(=O)CCOCCOCC[N+](C)(C)C)C(C)(C)SSC(C)(C)[C@@H](C(=O)N[C@@H](Cc2ccc(OCCCCC[N+](C)(C)C)cc2)C(=O)N[C@@H](Cc2ccc3ccccc3c2)C(=O)NC2(C(=O)N[C@@H](CCCCN(C)C(C)=O)C(=O)N[C@@H](CC(N)=O)C(=O)N[C@@H](Cc3cccnc3)C(=O)N(C)CC(=O)N(C)C)CCOCC2)NC1=O` [compound 132, cPEG3aCO-k(PEG12gEC18OH)-Pen(3)-N(N(Me)2)-T-7MeW-K(NMeAc)-Pen(3)-TMAPF-2Nal-THP-K(NMeAc)-N-3Pya-Sar-CON(Me)2] ({C18 diacid-γGlu-PEG12}-[X15][Pen]D(NMe2)T[Trp(7-Me)][Lys(Me)](Ac)[Pen]Y(X1)[2Nal][Thp][Lys(Me)](Ac)N[3Pal][Sar]-NMe2; disulfide 2-7), the IC50 on IL-23R is below 50 nM; in assay [1], below 0.5 nM.

With `CC(=O)N(C)CCCC[C@@H]1NC(=O)[C@H](Cc2c[nH]c3c(C)cccc23)NC(=O)[C@H]([C@@H](C)O)NC(=O)[C@H](CC(=O)N(C)C)NC(=O)[C@@H](NC(=O)CCOCCOCC[N+](C)(C)C)C(C)(C)SSC(C)(C)[C@@H](C(=O)N[C@@H](Cc2ccc(OCCCCC[N+](C)(C)C)cc2)C(=O)N[C@@H](Cc2ccc3ccccc3c2)C(=O)NC2(C(=O)N[C@@H](CCCCN(C)C(C)=O)C(=O)N[C@@H](CC(N)=O)C(=O)N[C@@H](Cc3cccnc3)C(=O)N(C)CC(=O)NCCOCCOCCNC(=O)COCCOCCNC(=O)CC[C@H](CC(=O)CCCCCCCCCCCCCCCCC(=O)O)C(=O)O)CCOCC2)NC1=O` [compound 145, cPEG3aCO-Pen(3)-N(N(Me)2)-T-7MeW-K(NMeAc)-Pen(3)-TMAPF-2Nal-THP-K(NMeAc)-N-3Pya-Sar-CO(PEG2PEG2gEC18OH)] ({Me3N+(CH2)2O(CH2)2O(CH2)2CO}-[Pen]D(NMe2)T[Trp(7-Me)][Lys(Me)](Ac)[Pen]Y(X1)[2Nal][Thp][Lys(Me)](Ac)N[3Pal][Sar]-X34; disulfide 1-6), the IC50 against IL-23R was 50 to 500 nM; in assay [1], at least 5 nM.

Values taken from patent US20260250320A1, “LIPIDATED PEPTIDE INHIBITORS OF INTERLEUKIN-23 RECEPTOR” (Janssen Pharmaceutica NV, priority 2023, published 2026).
